Experimental findings from US20140179681A1, “METHODS AND COMPOSITIONS OF TARGETED DRUG DEVELOPMENT” (priority 2010, published 2014) are described below.

The experiment deals with T1, EGFR (Homo sapiens, UniProt P00533).
T1 construct: host or cells: A431
As to the kind of experiment: EGFR in-cell Western (ICW) screening protocol (EGFR inhibition assay). In kind it is cell-based. Conditions: % Inhibition of EGF dependent EGFR phosphorylation in A431 cells, compound 125 μM in assay. A digest of the protocol: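 In-cell Western read-out: fixed A431 cells were co-stained for total EGFR and phospho-EGFR (Tyr1173; some runs Tyr1045). Before fixation, cells were serum-starved for 2 h, exposed to compound for 4 h, then given EGF for 10 min, usually at 10 ng/ml final (6.6 or 12.5 ng/ml in some runs).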

Each structure is given as a SMILES string.

T1 sequence (P00533 25-1210): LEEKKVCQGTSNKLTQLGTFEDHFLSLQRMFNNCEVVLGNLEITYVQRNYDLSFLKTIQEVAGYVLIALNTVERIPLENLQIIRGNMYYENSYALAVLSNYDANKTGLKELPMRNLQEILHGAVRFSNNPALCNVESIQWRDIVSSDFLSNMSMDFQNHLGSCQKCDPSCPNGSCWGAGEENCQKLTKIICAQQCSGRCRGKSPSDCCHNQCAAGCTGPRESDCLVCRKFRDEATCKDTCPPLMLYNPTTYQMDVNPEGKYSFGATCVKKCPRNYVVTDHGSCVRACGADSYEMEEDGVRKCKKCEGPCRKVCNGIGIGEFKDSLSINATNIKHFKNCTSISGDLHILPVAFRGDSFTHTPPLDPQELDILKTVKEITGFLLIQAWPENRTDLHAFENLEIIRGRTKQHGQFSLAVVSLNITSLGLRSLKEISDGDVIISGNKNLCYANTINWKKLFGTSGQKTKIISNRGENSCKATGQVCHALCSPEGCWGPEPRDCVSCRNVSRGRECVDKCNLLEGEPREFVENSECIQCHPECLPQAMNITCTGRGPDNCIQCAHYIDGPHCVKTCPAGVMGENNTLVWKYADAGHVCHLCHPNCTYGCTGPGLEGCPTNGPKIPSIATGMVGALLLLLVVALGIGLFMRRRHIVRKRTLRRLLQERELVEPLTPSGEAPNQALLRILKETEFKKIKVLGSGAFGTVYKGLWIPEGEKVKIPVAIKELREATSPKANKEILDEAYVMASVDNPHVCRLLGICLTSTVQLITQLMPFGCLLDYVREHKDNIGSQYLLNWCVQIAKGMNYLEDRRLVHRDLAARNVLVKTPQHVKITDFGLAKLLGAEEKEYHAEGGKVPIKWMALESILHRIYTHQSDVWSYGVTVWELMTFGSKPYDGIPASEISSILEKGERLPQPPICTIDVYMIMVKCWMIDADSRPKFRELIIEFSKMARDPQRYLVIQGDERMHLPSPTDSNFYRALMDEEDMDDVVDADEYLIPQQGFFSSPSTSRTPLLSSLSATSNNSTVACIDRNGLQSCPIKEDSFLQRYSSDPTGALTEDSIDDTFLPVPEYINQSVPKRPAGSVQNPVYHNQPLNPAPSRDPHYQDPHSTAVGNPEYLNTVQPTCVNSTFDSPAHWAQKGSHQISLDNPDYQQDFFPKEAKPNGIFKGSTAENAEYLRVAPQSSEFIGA

On to `CCc1cc2c(CN3CCN(Cc4ccc5c(c4)OCO5)CC3)cc(=O)oc2cc1O` [AD4-1734], for which the “ICW Screen” value (Table 11) turned out to be 65.9.

With `Cc1cc(C)cc(NS(=O)(=O)c2ccc(NC(=S)Nc3ccccc3)cc2)c1` [AD4-11091], the ICW assay (Table 10) is listed as 112.858.
